Columns and labels:
Type in all cases: in vivo
[1] = tested on: Brassica napus (BRSNN); experiment: Pre-harvest desiccation of crop plants; conditions: Table E, evaluated after 7 and 14 days (which not stated), 100=total damage to plant, 0=no damage
Experimental: (§1) Seeds of a variety of test species were sown in standard loam based soil in pots. After cultivation from between 21 and 28 days (post-emergence) under controlled conditions in a glasshouse (at 24/16° C., day/night; 14 hours light; 65% humidity) for warm climate species and (at 20/16° C. day/night; 15 hours light; 65% humidity) for cool climate species.
(§2) The plants were sprayed with an aqueous spray solution derived from dissolving the technical active ingredient formula in a small amount of acetone and a special solvent and emulsifier mixture referred to as IF50 (11.12% Emulsogen EL360 TM+44.44% N-methylpyrrolidone+44.44% Dowanol DPM glycol ether), to create a 50 g/I solution which was then diluted to required concentration using a solution of 1% Empicol ESC70 (Sodium lauryl ether sulphate)+1% ammonium sulphate in water as diluent.
(§3) The delivery of the aqueous spray solution was via a laboratory track sprayer which delivered the aqueous spray composition at a rate of 200 litres per hectare, using a flat fan nozzle (Teejet 11002VS) and an application volume of 200 litre/ha (at 2 bar).
(§4) The test plants were then grown in a glasshouse under controlled conditions (at 24/16° C., day/night; 14 hours light; 65% humidity) for warm climate species and (at 20/16° C. day/night; 15 hours light; 65% humidity) for cool climate species and watered twice daily. After 7 and 14 days the test was evaluated (100=total damage to plant; 0=no damage to plant).
(§5) A value of n/t indicates not tested.
(§6) Glycine Max (GLXMA), Solanum turberosum (SOLTU), Gossypium hirsutum (GOSHI), Brassica napus (BRSNN), Helianthus annus (HELAN)

[2] = tested on: Glycine Max (GLXMA); experiment: Pre-harvest desiccation of crop plants; conditions: Table E, evaluated after 7 and 14 days (which not stated), 100=total damage to plant, 0=no damage
Experimental: as §1, §2, §3, §4, §5, §6

[3] = tested on: Solanum turberosum (SOLTU); experiment: Pre-harvest desiccation of crop plants; conditions: Table E, evaluated after 7 and 14 days (which not stated), 100=total damage to plant, 0=no damage
Experimental: as §1, §2, §3, §4, §5, §6

[4] = tested on: Gossypium hirsutum (GOSHI); experiment: Pre-harvest desiccation of crop plants; conditions: Table E, evaluated after 7 and 14 days (which not stated), 100=total damage to plant, 0=no damage
Experimental: as §1, §2, §3, §4, §5, §6

[5] = tested on: Setaria faberi (SETFA); experiment: Post-emergence efficacy, Method B; conditions: read-out: Control of weed species after post-emergence application, SETFA
Experimental: (§7) An “instant formulation”, known as the IF50, containing 50 g/L of the “technical” (i.e. unformulated) active ingredient was prepared by dissolving the active ingredient in a mixture of organic solvents and emulsifier, details of which are provided in the table. This IF50 was then mixed with a small, variable amount of acetone to aid dissolution, before addition of an aqueous solution of 1% v/v ammonium sulphate+1% v/v Empicol ESC70 (Sodium lauryl ether sulphate) adjuvant, as the aqueous diluent, to form an aqueous spray solution which contains a predetermined concentration of the active ingredient (which varies depending on the application rate of the active ingredient to the plants).
(§8) This aqueous spray solution was then sprayed onto the plants, after about 12 days' cultivation. The plants were grown from seeds sown in standard soil, placed in a glasshouse under controlled conditions (at 24/18° C. or 20/16° C., day/night; 16 hours light; 65% humidity). After spray application the plants were then grown on in a glasshouse under the same conditions and watered twice daily. […] the test was evaluated (100=total damage to plant; 0=no damage to plant).
(§9) Ipomoea hederacea (IPOHE), Euphorbia heterophylla (EPHHL), Chenopodium album (CHEAL), Amaranthus retroflexus (AMARE), Lolium perenne (LOLPE), Digitaria sanguinalis (DIGSA), Eleusine indica (ELEIN), Echinochloa crus-galli (ECHCG), Setaria faberi (SETFA)

[6] = tested on: Digitaria sanguinalis (DIGSA); experiment: Post-emergence efficacy, Method B; conditions: read-out: Control of weed species after post-emergence application, DIGSA
Experimental: as §7, §8, §9

[7] = tested on: Echinochloa crus-galli (ECHCG); experiment: Post-emergence efficacy, Method B; conditions: read-out: Control of weed species after post-emergence application, ECHCG
Experimental: as §7, §8, §9

[8] = tested on: Ipomoea hederacea (IPOHE); experiment: Post-emergence efficacy, Method B; conditions: read-out: Control of weed species after post-emergence application, IPOHE
Experimental: as §7, §8, §9

[9] = tested on: Chenopodium album (CHEAL); experiment: Post-emergence efficacy, Method B; conditions: read-out: Control of weed species after post-emergence application, CHEAL
Experimental: as §7, §8, §9

[10] = tested on: Lolium perenne (LOLPE); experiment: Post-emergence efficacy, Method B; conditions: read-out: Control of weed species after post-emergence application, LOLPE
Experimental: as §7, §8, §9

[11] = tested on: Euphorbia heterophylla (EPHHL); experiment: Post-emergence efficacy, Method B; conditions: read-out: Control of weed species after post-emergence application, EPHHL
Experimental: as §7, §8, §9

[12] = tested on: Amaranthus retroflexus (AMARE); experiment: Post-emergence efficacy, Method B; conditions: read-out: Control of weed species after post-emergence application, AMARE
Experimental: as §7, §8, §9

[13] = tested on: Eleusine indica (ELEIN); experiment: Post-emergence efficacy, Method B; conditions: read-out: Control of weed species after post-emergence application, ELEIN
Experimental: as §7, §8, §9

With O=S(=O)([O-])CC[n+]1ccc(-c2cccnn2)cn1 [Compound A5, 2-(4-pyridazin-3-ylpyridazin-1-ium-1-yl)ethanesulfonate] the “Post-emergence dessication efficacy, BRSNN” value ([1]; 150 g/Ha) was 50, the “Post-emergence dessication efficacy, BRSNN” value ([1]; 300 g/Ha) was 72 and the “Post-emergence dessication efficacy, BRSNN” value ([1]; 600 g/Ha) was 82. For the same molecule, the “Post-emergence dessication efficacy, GLXMA” value ([2]; 150 g/Ha) was 83, the “Post-emergence dessication efficacy, GLXMA” value ([2]; 300 g/Ha) was 93 and the “Post-emergence dessication efficacy, GLXMA” value ([2]; 600 g/Ha) was 100. For the same molecule, the “Post-emergence dessication efficacy, SOLTU” value ([3]; 150 g/Ha) was 27, the “Post-emergence dessication efficacy, SOLTU” value ([3]; 300 g/Ha) was 53 and the “Post-emergence dessication efficacy, SOLTU” value ([3]; 600 g/Ha) was 60. The “Post-emergence dessication efficacy, GOSHI” value ([4]; 150 g/Ha) was 82, the “Post-emergence dessication efficacy, GOSHI” value ([4]; 300 g/Ha) was 98 and the “Post-emergence dessication efficacy, GOSHI” value ([4]; 600 g/Ha) was 100.

N[C@@H](CCC[n+]1ccc(-c2ncccn2)cn1)C(=O)O [Compound A211, [(1S)-1-carboxy-4-(4-pyrimidin-2-ylpyridazin-1-ium-1-yl)butyl]ammonium dichloride] was tested, and the pest or weed control at 500 g/ha [5] was 100%, the pest or weed control at 500 g/ha [6] was 100% and the pest or weed control at 500 g/ha [7] was 100%. For the same molecule, the pest or weed control at 500 g/ha [8] was 100%, the pest or weed control at 500 g/ha [9] was 90% and the pest or weed control at 500 g/ha [10] was 10%. It also gave a pest or weed control at 500 g/ha [11] of 80%, a pest or weed control at 500 g/ha [12] of 100% and a pest or weed control at 500 g/ha [13] of 100%.

With O=S(=O)([O-])CC[n+]1ccc(-c2ncccn2)cn1 [Compound A1, 2-(4-pyrimidin-2-ylpyridazin-1-ium-1-yl)ethanesulfonate] the “Post-emergence dessication efficacy, BRSNN” value ([1]; 150 g/Ha) was 33, the “Post-emergence dessication efficacy, BRSNN” value ([1]; 300 g/Ha) was 55 and the “Post-emergence dessication efficacy, BRSNN” value ([1]; 600 g/Ha) was 70. For the same molecule, the “Post-emergence dessication efficacy, GLXMA” value ([2]; 150 g/Ha) was 68, the “Post-emergence dessication efficacy, GLXMA” value ([2]; 300 g/Ha) was 94 and the “Post-emergence dessication efficacy, GLXMA” value ([2]; 600 g/Ha) was 98. For the same molecule, the “Post-emergence dessication efficacy, SOLTU” value ([3]; 150 g/Ha) was 38, the “Post-emergence dessication efficacy, SOLTU” value ([3]; 300 g/Ha) was 90 and the “Post-emergence dessication efficacy, SOLTU” value ([3]; 600 g/Ha) was 60. For the same molecule, the “Post-emergence dessication efficacy, GOSHI” value ([4]; 150 g/Ha) was 99, the “Post-emergence dessication efficacy, GOSHI” value ([4]; 300 g/Ha) was 98 and the “Post-emergence dessication efficacy, GOSHI” value ([4]; 600 g/Ha) was 96.

Nc1ccnc(-c2cc[n+](CCC(=O)O)nc2)n1 [Compound A41] showed a pest or weed control at 1000 g/ha [5] of 100%, a pest or weed control at 1000 g/ha [6] of 100% and a pest or weed control at 1000 g/ha [7] of 100%. For the same molecule, the pest or weed control at 1000 g/ha [8] was 20%, the pest or weed control at 1000 g/ha [9] was 90% and the pest or weed control at 1000 g/ha [10] was 60%. For the same molecule, the pest or weed control at 1000 g/ha [11] was 100%, the pest or weed control at 1000 g/ha [12] was 100% and the pest or weed control at 1000 g/ha [13] was 50%.

From US20220125051A1, “PRE-HARVEST DESICCATION METHOD” (SYNGENTA CROP PROTECTION AG, priority 2019, published 2022)
